From patent US20060281724A1, “Methods for Treating Shock” (priority 2005, published 2006)

Assays:
[1] = tested on: rats subjected to 40% loss of total blood volume; test: Rat model of volume hemorrhagic trauma (blood loss model); type: in vivo
Protocol: Twenty-four rats were subjected to 40% loss of total blood volume, consisting of catheterization and laparotomy (soft tissue injury) to mimic trauma and hemorrhage. One hour after onset of hemorrhage, the animals were resuscitated with crystalloid fluid and packed red blood cells (PRBCs). Twelve animals received one subcutaneous injection of AET in a methyl cellulose suspension at a concentration of 40 mg/kg body weight in 100 μl/kg body weight, one hour after initiation of hemorrhage, but prior to fluid resuscitation. Twelve animals received subcutaneous methyl cellulose control injection at 100 μl/kg body weight.

[2] = tested on: rats hemorrhaged down to a mean arterial pressure of about 35-40 mmHg; test: Rat model of blood pressure hemorrhagic trauma (pressure reduction model); type: in vivo; details: two days after induction of hemorrhage; AET 40 mg/kg subcutaneous in methyl cellulose suspension, one hour after initiation of hemorrhage, prior to fluid resuscitation; untreated/control group 75%
Protocol: In a second model of hemorrhagic trauma, 15 rats were hemorrhaged as in Example 1 down to a mean arterial pressure of about 35-40 mmHg and resuscitated one hour from onset of hemorrhage with crystalloid and PRBCs. Seven […] subcutaneous injection of AET in a methyl cellulose suspension at a concentration of 40 mg/kg body weight in 100 μl/kg body weight, one hour after initiation of hemorrhage, but prior to fluid resuscitation. Eight animals received subcutaneous methyl cellulose control injection at 100 μl/kg body weight. Two days after induction of hemorrhage, mortality in the untreated group (n=8) was 75%.

SMILES: C[C@]12CCC(O)CC1=CC(O)[C@@H]1[C@@H]2CC[C@]2(C)C(O)CC[C@@H]12 (stereo partly drawn) [AET, trihydroxy-androst-5ene]
- mortality ([1]; three days after hemorrhagic conditions that reduced total blood volume by 40%, FIG. 1): zero
- survival rate ([1]; three days after induction of hemorrhage, AET 40 mg/kg subcutaneous in methyl cellulose suspension, one hour after initiation of hemorrhage, prior to fluid resuscitation, untreated group mortality 25%, P<0.04): 100%
- mortality rate [2]: 43%
